Biological target: T1, CquiOR136/CquiOrco (Culex quinquefasciatus, UniProt A0A0A0QKD4)
T1 construct: odorant receptor co-expressed with its co-receptor Orco in Xenopus oocytes; with Odorant receptor coreceptor
T1 sequence (A0A0A0QKD4 1-436): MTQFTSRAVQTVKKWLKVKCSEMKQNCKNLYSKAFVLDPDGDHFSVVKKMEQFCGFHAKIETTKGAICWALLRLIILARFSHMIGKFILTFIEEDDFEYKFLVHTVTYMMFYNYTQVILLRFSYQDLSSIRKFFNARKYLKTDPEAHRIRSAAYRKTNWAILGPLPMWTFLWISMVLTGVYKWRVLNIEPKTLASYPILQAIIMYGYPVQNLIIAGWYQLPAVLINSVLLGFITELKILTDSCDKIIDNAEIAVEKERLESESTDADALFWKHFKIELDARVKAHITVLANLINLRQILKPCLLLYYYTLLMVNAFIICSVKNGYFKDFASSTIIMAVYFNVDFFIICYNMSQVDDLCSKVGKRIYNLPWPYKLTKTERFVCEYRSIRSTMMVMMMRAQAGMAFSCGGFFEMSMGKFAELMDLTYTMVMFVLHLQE
Experiment: two-electrode voltage clamp, Xenopus oocytes
Assay type: cell-based
Details: holding potential -80 mV, CquiOrco co-expressed, agonist
Procedure: All compounds were tested at the same dose

Row | SMILES | current at 1 mM
1 | CCCCCC1C(=O)CCC1CC(=O)OC (mixture of isomers) [MDJ, methyl 2-(3-oxo-2-pentylcyclopentyl)acetate] | The currents elicited by methyl dihydrojasmonate were significantly higher than those elicited by lilial
2 | CC(C=O)Cc1ccc(C(C)(C)C)cc1 (centres unmarked) [lilial] | both compounds were somewhat strong repellents, they activated CquiOR136 differently

Source: PMC6007898, “Methyl dihydrojasmonate and lilial are the constituents with an "off-label" insect repellence in perfumes” (PLoS ONE, 2018)
